Measurements published in US8101647B2, “Spiro-oxindole compounds and their use as therapeutic agents” (Xenon Pharmaceuticals Inc., priority 2008, dated 2012).

Assays:
sodium channel = experiment: Guanidine influx assay; assay type: cell-based, human or rat; settings: known cell line that expresses a sodium channel; read-out: IC50 Activity Level
Excerpt: This example describes an in vitro assay for testing and profiling test agents against human or rat sodium channels stably expressed in cells of either an endogenous or recombinant origin. The assay is also useful for determining the IC50 of a sodium channel blocking compound. The assay is based on the guanidine flux assay described by Reddy, N. L., et al., J. Med. Chem. (1998), 41(17):3298-302.
The guanidine influx assay is a radiotracer flux assay used to determine ion flux activity of sodium channels in a high-throughput microplate-based format. The assay uses ^14C-guanidine hydrochloride in combination with various known sodium channel modulators, to assay the potency of test agents. Potency is determined by an IC50 calculation. Selectivity is determined by comparing potency of the compound for the channel of interest to its potency against other sodium channels (also called ‘selectivity profiling’).
Each of the test agents is assayed against cells that express the channels of interest. Voltage gated sodium channels are either TTX sensitive or insensitive. This property is useful when evaluating the activities of a channel of interest when it resides in a mixed population with other sodium channels. The following Table 1 summarizes cell lines useful in screening for a certain channel activity in the presence or absence of TTX.
It is also possible to employ recombinant cells expressing these sodium channels. Cloning and propagation of recombinant cells are known to those skilled in the art (see, for example, Klugbauer, N, et al., EMBO J. (1995), 14(6):1084-90; and Lossin, C., et al., Neuron (2002), 34, pp. 877-884).
Cells expressing the channel of interest are grown according to the supplier or in the case of a recombinant cell in the presence of selective growth media such as G418 (Gibco/Invitrogen). The cells are disassociated from the culture dishes with an enzymatic solution (1×) Trypsin/EDTA (Gibco/Invitrogen) and analyzed for density and viability using haemocytometer (Neubauer). Disassociated cells are washed and resuspended in their culture media then plated into Scintiplates (Beckman Coulter Inc.) (approximately 100,000 cells/well) and incubated at 37° C./5% CO2. for 20-24 hours. After an extensive wash with Low sodium HEPES-buffered saline solution (LNHBSS) (150 mM Choline Chloride, […] (Sigma), 1 mM Calcium Chloride, 5 mM Potassium Chloride, 1 mM Magnesium Chloride, 10 mM Glucose) agents diluted with LNHBSS are added to each well. (Varying concentrations of test agent may be used). The activation/radiolabel mixture contains aconitine (Sigma) to increase the percentage of time that the sodium channels are open, and ^14C-guanidine hydrochloride (ARC) to measure flux through the voltage-gated sodium channels.
After loading the cells with test agent and activation/radiolabel mixture, the Scintiplates are incubated at ambient temperature. Following the incubation, the Scintplates are extensively washed with LNHBSS supplemented with guanidine (Sigma). The Scintiplates are dried and then counted using a Wallac MicroBeta TriLux (Perkin-Elmer Life Sciences). The ability of the test agent to block sodium channel activity is determined by comparing the amount of ^14C-guanidine present inside the cells expressing the different sodium channels.
The IC50 value of a test agent for a specific sodium channel may be determined using the above general method. […] Typically the mid-point concentration of test agent is set at 1 μM, and sequential concentrations of half dilutions greater or smaller are applied (e.g. 0.5 μM; 5 μM and 0.25 μM; 10 μM and 0.125 μM; 20 μM etc.). The IC50 curve is calculated using the 4 Parameter Logistic Model or Sigmoidal Dose-Response Model formula (fit=(A+((B−A)/(1+((C/x)^D)))).
The fold selectivity, factor of selectivity or multiple of selectivity, is calculated by dividing the IC50 value of the test sodium channel by the reference sodium channel, for example, NaV1.5. […]

CYP3A4 = target: T1, CYP3A4 (Homo sapiens, UniProt P08684); experiment: Cytochrome P450 (CYP450) inhibition assay, fluorescence-based; assay type: in vitro ADME; settings: recombinant CYP3A4 (P450 Baculosomes), probe Vivid substrate (fluorogenic)
T1 construct: purchased Invitrogen Corporation (Vivid CYP450 Screening Kit)
T1 sequence (P08684 whole entry): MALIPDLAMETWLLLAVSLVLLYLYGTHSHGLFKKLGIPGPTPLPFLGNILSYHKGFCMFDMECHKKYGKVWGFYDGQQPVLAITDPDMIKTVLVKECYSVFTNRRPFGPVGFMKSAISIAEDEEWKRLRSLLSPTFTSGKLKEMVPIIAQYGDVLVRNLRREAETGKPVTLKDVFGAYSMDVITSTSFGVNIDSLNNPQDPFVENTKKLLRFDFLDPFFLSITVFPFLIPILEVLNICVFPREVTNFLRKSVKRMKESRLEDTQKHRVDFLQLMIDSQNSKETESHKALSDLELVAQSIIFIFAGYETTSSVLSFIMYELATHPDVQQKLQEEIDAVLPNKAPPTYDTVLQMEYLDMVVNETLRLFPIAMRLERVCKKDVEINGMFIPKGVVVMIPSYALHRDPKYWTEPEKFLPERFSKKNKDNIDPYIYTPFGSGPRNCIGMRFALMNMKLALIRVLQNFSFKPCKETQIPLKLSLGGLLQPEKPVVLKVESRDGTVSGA

Row | SMILES | melting point | IC50 (sodium channel) | inhibition at 10 µM (CYP3A4)
1 | Cl.O=C1N(Cc2ccc(N[C@@H]3CCNC3)cc2)c2ccccc2C12COc1cc3c(cc12)OCO3 (stereo partly drawn) | 190 to 195 °C | – | –
2 | CN(C)CCOc1ccc2c(c1)OCC21C(=O)Nc2ccccc21 (stereo not drawn) [Example 2, 6-[2-(dimethylamino)ethoxy]spiro[1-benzofuran-3,3′-indol]-2′(1′H)-one] | 95 to 97 °C | ≥ 10 µM | –
3 | CC(C)[Si](Oc1ccc2c(c1)OCC21C(=O)N(C[C@H]2CCCO2)c2ccccc21)(C(C)C)C(C)C (stereo partly drawn) [Example 4, 1′-[(2R)-tetrahydrofuran-2-ylmethyl]-6-{[tris(1-methylethyl)silyl]oxy}spiro[1-benzofuran-3,3′-indol]-2′(1′H)-one] | – | 0.1 to 1 µM | –
4 | CC(C)(C)OC(=O)N1CC[C@@H](Nc2ccc(CN3C(=O)C4(COc5cc6c(cc54)OCO6)c4ccccc43)cc2)C1 (stereo partly drawn) [Example 5, tert-butyl (3R)-3-({4-[(2′-oxospiro[furo[2,3-f][1,3]benzodioxole-7,3′-indol]-1′(2′H)-yl)methyl]phenyl}-amino)pyrrolidine-1-carboxylate] | 115 to 118 °C | – | –
5 | O=C1N(Cc2ccc(N[C@@H]3CCNC3)cc2)c2ccccc2C12COc1cc3c(cc12)OCO3 (stereo partly drawn) [Example 6, 1′-{4-[(3R)-pyrrolidin-3-ylamino]benzyl}spiro[furo[2,3-f][1,3]benzodioxole-7,3′-indol]-2′(1′H)-one] | 118 to 121 °C | – | –
6 | CC(=O)N1CCC[C@H]1CN1C(=O)C2(COc3cc4c(cc32)CCO4)c2ccccc21 (stereo partly drawn) [Example 8, 1′-{[(2S)-1-acetylpyrrolidin-2-yl]methyl}-5,6-dihydrospiro[benzo[1,2-b:5,4-b′]difuran-3,3′-indol]-2′(1′H)-one] | 103 to 108 °C | 1 to 10 µM | > 50%
7 | N/C(CN1C(=O)C2(COc3cc4c(cc32)OCO4)c2c(Cl)cccc21)=N\OC(=O)C1CC1 (stereo not drawn) [Example 11, 2-(4′-chloro-2′-oxospiro[furo[2,3-f][1,3]benzodioxole-7,3′-indol]-1′(2′H)-yl)-N′-[(cyclopropylcarbonyl)oxy]ethanimidamide] | – | 0.1 to 1 µM | > 50%
8 | NC(=O)COc1cccc(CN2C(=O)C3(COc4cc5c(cc43)CCO5)c3ccccc32)c1 (stereo not drawn) [Example 13, 2-{3-[(2-oxo-5,6-dihydrospiro[benzo[1,2-b:5,4-b]difuran-3,3-indol]-1(2H)-yl)methyl]phenoxy}acetamide] | 109 to 111 °C | 0.001 to 0.1 µM | > 50%
9 | O=C(O)COc1cccc(CN2C(=O)C3(COc4cc5c(cc43)CCO5)c3ccccc32)c1 (stereo not drawn) [Example 15, {3-[(2′-oxo-5,6-dihydrospiro[benzo[1,2-b:5,4-b′]difuran-3,3′-indol]-1′(2′H)-yl)methyl]phenoxy}acetic acid] | 95 to 96 °C | 1 to 10 µM | < 50%
10 | CNC(=O)COc1cccc(CN2C(=O)C3(COc4cc5c(cc43)CCO5)c3ccccc32)c1 (stereo not drawn) [Example 16, N-methyl-2-{3-[(2′-oxo-5,6-dihydrospiro[benzo[1,2-b:5,4-b′]difuran-3,3′-indol]-1′(2′H)-yl)methyl]phenoxy}acetamide] | 175 to 176 °C | 0.001 to 0.1 µM | > 50%
11 | C[S+]([O-])c1ccc(CN2C(=O)C3(COc4cc5c(cc43)CCO5)c3ccccc32)cc1 (stereo not drawn) [Example 17, 1′-[4-(methylsulfinyl)benzyl]-5,6-dihydrospiro[benzo[1,2-b:5,4-b′]difuran-3,3′-indol]-2′(1′H)-one] | – | 0.1 to 1 µM | > 50%
12 | CS(=O)(=O)N(c1ccc2c(c1)OCC21C(=O)N(C[C@H]2CCCO2)c2ccccc21)S(C)(=O)=O (stereo partly drawn) [Example 18, N-(methylsulfonyl)-N-{2′-oxo-1′-[(2R)-tetrahydrofuran-2-ylmethyl]-1′,2′-dihydrospiro[1-benzofuran-3,3′-indol]-6-yl}methanesulfonamide] | – | 1 to 10 µM | < 50%
13 | CC(N)COc1ccc2c(c1)OCC21C(=O)N(C[C@H]2CCCO2)c2ccccc21.Cl (stereo partly drawn) [Example 20, 6-(2-aminopropoxy)-1′-[(2R)-tetrahydrofuran-2-ylmethyl]spiro[1-benzofuran-3,3′-indol]-2′(1′H)-one hydrochloride] | 120 to 130 °C | 1 to 10 µM | < 50%
14 | CN(C)CCOc1ccc2c(c1)OCC21C(=O)N(C[C@H]2CCCO2)c2ccccc21 (stereo partly drawn) [Example 21, 6-[2-(dimethylamino)ethoxy]-1′-[(2R)-tetrahydrofuran-2-ylmethyl]spiro[1-benzofuran-3,3′-indol]-2′(1′H)-one] | – | 1 to 10 µM | < 50%
15 | O=C1N(C[C@H]2CCCO2)c2ccccc2C12COc1cc3c(cc12)C(=NO)CO3 (stereo partly drawn) [Example 24, 1′-[(2R)-tetrahydrofuran-2-ylmethyl]spiro[benzo[1,2-b:5,4-b′]difuran-3,3′-indole]-2′,5(1′H,6H)-dione 5-oxime] | 82 to 100 °C | 1 to 10 µM | > 50%
16 | N/C(CN1C(=O)C2(COc3cc4c(cc32)OCO4)c2ccccc21)=N\O (stereo not drawn) [Example 25, (1Z)-N′-hydroxy-2-(2′-oxospiro[furo[2,3-f][1,3]benzodioxole-7,3′-indol]-1′(2′H)-yl)ethanimidamide] | 235 to 238 °C | 0.1 to 1 µM | > 50%

More lines, now with the values ahead:

Row | melting point | IC50 (sodium channel) | inhibition at 10 µM (CYP3A4) | SMILES
17 | 215 to 216 °C | 0.001 to 0.1 µM | < 50% | NC(=O)COc1ccc(CN2C(=O)C3(COc4cc5c(cc43)CCO5)c3ccccc32)cc1 (stereo not drawn) [Example 13.1, 2-{4-[(2′-oxo-5,6-dihydrospiro[benzo[1,2-b:5,4-b′]difuran-3,3′-indol]-1′(2′H)-yl)methyl]phenoxy}acetamide]
18 | 124 to 125 °C | 0.001 to 0.1 µM | > 50% | COCCOc1ccc(CN2C(=O)C3(COc4cc5c(cc43)OCCO5)c3ccccc32)cc1 (stereo not drawn) [Example 13.3, 1′-[4-(2-methoxyethoxy)benzyl]-2,3-dihydrospiro[furo[2,3-g][1,4]benzodioxine-8,3′-indol]-2′(1′H)-one]
19 | 158 to 159 °C | 0.001 to 0.1 µM | < 50% | CCOC(=O)COc1ccc(CN2C(=O)C3(COc4cc5c(cc43)CCO5)c3ccccc32)cc1 (stereo not drawn) [Example 14.1, ethyl {4-[(2′-oxo-5,6-dihydrospiro[benzo[1,2-b:5,4-b′]difuran-3,3′-indol]-1′(2′H)-yl)methyl]phenoxy}acetate]
20 | 59 to 61 °C | 0.001 to 0.1 µM | < 50% | CCOC(=O)COc1ccc(CN2C(=O)C3(COc4cc5c(cc43)OCCO5)c3ccccc32)cc1 (stereo not drawn) [Example 14.2, ethyl {4-[(2′-oxo-2,3-dihydrospiro[furo[2,3-g][1,4]benzodioxine-8,3′-indol]-1′(2′H)-yl)methyl]phenoxy}acetate]
21 | 265 to 266 °C | – | < 50% | O=C(O)COc1ccc(CN2C(=O)C3(COc4cc5c(cc43)CCO5)c3ccccc32)cc1 (stereo not drawn) [Example 15.1, {4-[(2′-oxo-5,6-dihydrospiro[benzo[1,2-b:5,4-b′]difuran-3,3′-indol]-1′(2′H)-yl)methyl]phenoxy}acetic acid]
22 | 223 to 224 °C | – | < 50% | O=C(O)COc1ccc(CN2C(=O)C3(COc4cc5c(cc43)OCCO5)c3ccccc32)cc1 (stereo not drawn) [Example 15.2, {4-[(2′-oxo-2,3-dihydrospiro[furo[2,3-g][1,4]benzodioxine-8,3′-indol]-1′(2′H)-yl)methyl]phenoxy}acetic acid]
